Values belong to the compound of their own block, whether it stands above or below them.
Assays:
[1] = system: C57BL/6 mice; assay: Systolic blood pressure by tail cuff method in IL-2 treated mice; assay type: in vivo
Procedure: Systolic blood pressure was measured via tail cuff method (Stoelting, Wood Dell, Ill.) using PowerLab digital signal transducer (AD instruments, Mountain View, Calif.). […] The lower limit of blood pressure detectable using this instrumentation is about 40 mm of Hg. This value of blood pressure was assigned whenever no detectable value could be obtained.
(§1) 1400 W was dissolved at a concentration of 1M in sterile PBS and administered via continuous subcutaneous infusion by Alzet mini osmotic pumps (Model 2001, Alzet Corporation, Cupertino, Calif.). Each pump contained 225 μL of solution that released a constant volume of 28 μL/day, resulting in a calculated delivery of 7 mg 1400 W/mouse/day.
(§2) MLA was dissolved in sterile ultra-filtered water at a concentration of 3.38M and loaded into pre-equilibrated osmotic pumps containing 225 μL of solution that released a constant volume of 28 μL/day, resulting in a calculated delivery of 18.5 mg MLA/mouse/day.

[2] = system: C57BL/6 mice; assay: VLS evaluation: [125I]-labeled albumin accumulation in peritoneal fluid of IL-2 treated mice; assay type: in vivo; settings: for Effect on IL-2 induced radio-albumin accumulation in peritoneal fluid / VLS: given with IL-2, M40403: iNOS WT or iNOS−/− mice, 1400 W: IL-2 treated mice; for [125I] labeled albumin retention in peritoneal fluid: MLA 18.5 mg/mouse/day s.c. during IL-2 treatment
Procedure: Peritoneal fluid was collected using blotting paper. Liver, spleen, intestines, kidneys, lungs and heart were also excised and analyzed for [^125l]-albumin accumulation. Data was expressed as percentage of radiolabeled albumin recovered from each tissue with the total amount recovered from each animal. This form of analysis minimizes differences induced by variability in injection technique.
as §1, §2

[3] = system: peritoneal exudate cells; assay: Inhibition of NO synthesis in IFNγ/LPS-stimulated peritoneal exudate cells (Griess reaction); assay type: cell-based; settings: 48 hours; highest concentration MLA 1 mM, Polymethylarginine 400 uM
Procedure: First, peritoneal exudate cells were elicited by thioglycolate. These cells were then harvested and cultured in 96 well microtiter wells at 1×10^6 overnight in DMEM media with 5% FCS. Media was then replaced with DMEM containing 50 Units/ml of IFNγ and 100 ng/ml bacterial lipopolysaccharide. Serial dilutions of either N^G-monomethy-L-larginine (MLA) or Polymethylarginine (poly-MLA 7-mer) were then added to experimental wells. The highest concentration of MLA was 1 mM and of Polymethylarginine was 400 uM.
The cultures were then incubated for 48 hours and culture supernatants were assayed for the NO metabolite nitrate using the Griess reaction after nitrate reduction.

[4] = Retention of modified NOS inhibitors in the vasculature; settings: due to their size
[5] = iNOS−/− mice, given together with IL-2

SMILES: CC(=N)NCc1cccc(CN)c1 [1400 W]
Systolic blood pressure ([1]; mice treated with IL-2 plus 1400 W, continuous s.c. infusion 7 mg/mouse/day): 45±7 mm of Hg
Effect on IL-2 induced radio-albumin accumulation in peritoneal fluid / VLS [2]: did not inhibit

SMILES: [Cl-].[Cl-].[Mn+2].c1cc2nc(c1)CN[C@@H]1CCCC[C@H]1NCCN[C@@H]1CCCC[C@H]1NC2 [M40403]
Systolic blood pressure [1, 5]: 85±5 mm of Hg
Effect on IL-2 induced radio-albumin accumulation in peritoneal fluid / VLS [2]: did not reverse

SMILES: CNC(=N)NCCC[C@H](N)C(=O)O [MLA, N^G-monomethyl-L-arginine]
Systolic blood pressure [1, 5]: 80±10 mm of Hg
[125I] labeled albumin retention in peritoneal fluid ([2]; iNOS WT mice): 0.562±0.24%
[125I] labeled albumin retention in peritoneal fluid ([2]; iNOS−/− mice): 1.66±0.06%
Effect of serial dilutions on NO production [3]: blocked NO production

Retention in the vasculature [4]: retained in the vasculature
SMILES: CNC(=N)NCCC[C@H](NC(=O)[C@H](CCCNC(=N)NC)NC(=O)[C@H](CCCNC(=N)NC)NC(=O)[C@H](CCCNC(=N)NC)NC(=O)[C@H](CCCNC(=N)NC)NC(=O)[C@H](CCCNC(=N)NC)NC(=O)[C@@H](N)CCCNC(=N)NC)C(=O)O [poly-MLA, (N^G-mono-methyl-L-arginine)^7]
